For the test, the target named is recombinant Human Phosphodiesterase B2 (PDE4B2) (Homo sapiens, UniProt Q07343). As to the kind of experiment: Human Phosphodiesterase B2 Radiometric Assay (yttrium silicate SPA beads, [3H]cyclic AMP). The format is biochemical. Particulars: recombinant human PDE4B2, radiometric SPA assay, 8 nM [3H]cyclic AMP; read-out: PDE4B2 pIC50 (converted). The method, then:
Human Phosphodiesterase B2 Radiometric Assay
The assay uses recombinant Human Phosphodiesterase B2 (PDE4B2) produced in house (PrAZL0163), stored at −20° C. This assay is based on the observation that 5′AMP, the product of the reaction catalysed by PDE4, binds preferentially to yttrium silicate SPA beads (Amersham Biosciences, UK) compared to the substrate, cAMP. Compounds at the appropriate concentration were preincubated at 30 C for 30 min with an assay buffer containing 50 mM HEPES (pH 7.5), 8.3 mM MgCl2, 1.7 mM EGTA, 0.01% (w/v) Brij° 35 and 0.1 mg/mL recombinant PDE4B2. The reaction was started by the addition of [3H]cyclic AMP to give a final concentration of 8 nM, and was stopped 20 minutes after the addition of the substrate by the addition of yttrium silicate SPA beads containing 18 mM Zn SO4. Bound [3H]cyclic AMP was measured using a Topcount NXT (Packard Bioscience, UK). pIC50 values (presented in Table 15) were determined using Xlfit3 curve fitting, using model 205.

Chain of recombinant Human Phosphodiesterase B2 (PDE4B2) (Q07343 1-564 isoform Q07343-2): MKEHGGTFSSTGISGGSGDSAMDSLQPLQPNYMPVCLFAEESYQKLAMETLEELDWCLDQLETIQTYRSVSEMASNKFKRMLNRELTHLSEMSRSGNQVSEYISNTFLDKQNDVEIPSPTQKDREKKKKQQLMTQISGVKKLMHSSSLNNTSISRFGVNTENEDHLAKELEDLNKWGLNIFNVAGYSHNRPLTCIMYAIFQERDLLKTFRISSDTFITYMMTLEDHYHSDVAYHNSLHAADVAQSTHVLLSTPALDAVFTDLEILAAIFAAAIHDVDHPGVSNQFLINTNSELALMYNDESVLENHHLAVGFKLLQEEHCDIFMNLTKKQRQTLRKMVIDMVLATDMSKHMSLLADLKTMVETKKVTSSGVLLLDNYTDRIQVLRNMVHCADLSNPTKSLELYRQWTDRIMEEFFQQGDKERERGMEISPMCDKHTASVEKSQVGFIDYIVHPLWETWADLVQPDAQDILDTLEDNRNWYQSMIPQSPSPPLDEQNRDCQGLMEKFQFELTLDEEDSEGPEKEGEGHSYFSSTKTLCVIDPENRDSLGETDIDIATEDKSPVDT

Turning to `C[C@H]1CN(Cc2ccc(-c3cccc(-n4c(=O)n([C@H]5CC[C@@H](NC(=O)c6cn7cc(F)ccc7n6)CC5)c(=O)c5cc(F)cnc54)c3)cc2)CCN1` (relative stereo) [Example 271, 6-Fluoro-N-{cis-4-[6-fluoro-1-(4′-{[(3S)-3-methylpiperazin-1-yl]methyl}biphenyl-3-yl)-2,4-dioxo-1,4-dihydropyrido[2,3-d]pyrimidin-3(2H)-yl]cyclohexyl}imidazo[1,2-a]pyridine-2-carboxamide], the IC50 was 7.94 pM.

In the case of `C[C@H](O)CN(C)Cc1cc(O)ccc1-c1cccc(-n2c(=O)n([C@H]3CC[C@@H](NCc4cn5cc(F)ccc5n4)CC3)c(=O)c3cc(F)cnc32)c1` (relative stereo) [Example 318, 6-fluoro-3-(cis-4-{[(6-fluoroimidazo[1,2-a]pyridin-2-yl)methyl]amino}cyclohexyl)-1-(4′-hydroxy-2′-{[[(2S)-2-hydroxypropyl](methyl)amino]methyl}biphenyl-3-yl)pyrido[2,3-d]pyrimidine-2,4(1H,3H)-dione], the IC50 is 2000 pM.

Consider `O=C(N[C@H]1CC[C@@H](n2c(=O)c3cc(F)cnc3n(-c3cccc(-c4ccccc4)c3)c2=O)CC1)c1cn2cc(F)ccc2n1` [Example 1, N-[cis-4-(1-biphenyl-3-yl-6-fluoro-2,4-dioxo-1,4-dihydropyrido[2,3-d]pyrimidin-3(2H)-yl)cyclohexyl]-6-fluoroimidazo[1,2-c]pyridine-2-carboxamide], for which the IC50 is 25.1 pM.

As to `CN1CCCC1c1ccc2nc(C(=O)N[C@H]3CC[C@@H](n4c(=O)c5cc(F)cnc5n(-c5cccc(-c6ccccc6)c5)c4=O)CC3)cn2c1` (stereo partly drawn) [Example 2, N-[cis-4-(1-biphenyl-3-yl-6-fluoro-2,4-dioxo-1,4-dihydropyrido[2,3-d]pyrimidin-3(2H)-yl)cyclohexyl]-6-(1-methylpyrrolidin-2-yl)imidazo[1,2-a]pyridine-2-carboxamide], the IC50 was 158 pM.

On to `O=C(N[C@H]1CC[C@@H](n2c(=O)c3cc(F)cnc3n(-c3cccc(-c4ccccc4)c3)c2=O)CC1)c1cn2ccccc2n1` [Example 3, N-[cis-4-(1-biphenyl-3-yl-6-fluoro-2,4-dioxo-1,4-dihydropyrido[2,3-d]pyrimidin-3(2H)-yl)cyclohexyl]imidazo[1,2-a]pyridine-2-carboxamide], for which the IC50 is 31.6 pM.

Turning to `O=C(Nc1ccccc1)c1cccc(-n2c(=O)n([C@H]3CC[C@@H](NC(=O)c4cn5ccccc5n4)CC3)c(=O)c3cc(F)cnc32)c1` [Example 4, N-{cis-4-[1-[3-(anilinocarbonyl)phenyl]-6-fluoro-2,4-dioxo-1,4-dihydropyrido[2,3-d]pyrimidin-3(2H)-yl]cyclohexyl}imidazo[1,2-c]pyridine-2-carboxamide], the IC50 was 39.8 pM.

Turning to `NCCNC(=O)c1cccc(-n2c(=O)n([C@H]3CC[C@@H](NC(=O)c4cn5ccccc5n4)CC3)c(=O)c3cc(F)cnc32)c1` [Example 5, N-{cis-4-[1-(3-{[(2-aminoethyl)amino]carbonyl}phenyl)-6-fluoro-2,4-dioxo-1,4-dihydropyrido[2,3-d]pyrimidin-3(2H)-yl]cyclohexyl}imidazo[1,2-a]pyridine-2-carboxamide], the IC50 was 39800 pM.

As to `O=C(N[C@H]1CC[C@@H](n2c(=O)c3cc(F)cnc3n(-c3cccc(C#Cc4cccnc4)c3)c2=O)CC1)c1cn2ccccc2n1` [Example 6, N-{cis-4-[6-fluoro-2,4-dioxo-1-[3-(pyridin-3-ylethynyl)phenyl]-1,4-dihydropyrido[2,3-d]pyrimidin-3(2H)-yl]cyclohexyl}imidazo[1,2-a]pyridine-2-carboxamide], the IC50 is 7.94 pM.

Consider `CN(C)Cc1ccc(-c2cccc(-n3c(=O)n([C@H]4CC[C@@H](NC(=O)c5cn6cc(F)ccc6n5)CC4)c(=O)c4cc(F)cnc43)c2)cc1` [Example 12, N-{cis-4-[1-{4′-[(dimethylamino)methyl]biphenyl-3-yl}-6-fluoro-2,4-dioxo-1,4-dihydropyrido[2,3-d]pyrimidin-3(2H)-yl]cyclohexyl}-6-fluoroimidazo[1,2-a]pyridine-2-carboxamide], for which the IC50 was 100 pM.

On to `O=C(N[C@H]1CC[C@@H](n2c(=O)c3cc(F)cnc3n(-c3cccc(-c4cccc(CN5CCOCC5)c4)c3)c2=O)CC1)c1cn2cc(F)ccc2n1` [Example 13, 6-fluoro-N-{cis-4-[6-fluoro-1-[3′-(morpholin-4-ylmethyl)biphenyl-3-yl]-2,4-dioxo-1,4-dihydropyrido[2,3-d]pyrimidin-3(2H)-yl]cyclohexyl}imidazo[1,2-a]pyridine-2-carboxamide.], for which the IC50 was 63.1 pM.

For `O=C(N[C@H]1CC[C@@H](n2c(=O)c3cc(F)cnc3n(-c3cccc(-c4cccc(CN5CCCCC5)c4)c3)c2=O)CC1)c1cn2cc(F)ccc2n1` [Example 14, 6-fluoro-N-{cis-4-[6-fluoro-2,4-dioxo-1-[3′-(piperidin-1-ylmethyl)biphenyl-3-yl]-1,4-dihydropyrido[2,3-d]pyrimidin-3(2H)-yl]cyclohexyl}imidazo[1,2-a]pyridine-2-carboxamide.], the IC50 is 200 pM.

For the compound `CSc1cccc(-c2cccc(-n3c(=O)n([C@H]4CC[C@@H](NC(=O)c5cn6cc(F)ccc6n5)CC4)c(=O)c4cc(F)cnc43)c2)c1` [Example 15, 6-fluoro-N-{cis-4-[6-fluoro-1-[3′-(methylthio)biphenyl-3-yl]-2,4-dioxo-1,4-dihydropyrido[2,3-d]pyrimidin-3(2H)-yl]cyclohexyl}imidazo[1,2-a]pyridine-2-carboxamide.], the IC50 was 12.6 pM.

Turning to `CN(C)Cc1cccc(-c2cccc(-n3c(=O)n([C@H]4CC[C@@H](NC(=O)c5cn6cc(F)ccc6n5)CC4)c(=O)c4cc(F)cnc43)c2)c1` [Example 16, N-{cis-4-[1-{3′-[(dimethylamino)methyl]biphenyl-3-yl}-6-fluoro-2,4-dioxo-1,4-dihydropyrido[2,3-d]pyrimidin-3(2H)-yl]cyclohexyl}-6-fluoroimidazo[1,2-a]pyridine-2-carboxamide.], the IC50 is 251 pM.

For the compound `CSc1ccccc1-c1cccc(-n2c(=O)n([C@H]3CC[C@@H](NC(=O)c4cn5cc(F)ccc5n4)CC3)c(=O)c3cc(F)cnc32)c1` [Example 17, 6-fluoro-N-{cis-4-[6-fluoro-1-[2′-(methylthio)biphenyl-3-yl]-2,4-dioxo-1,4-dihydropyrido[2,3-d]pyrimidin-3(2H)-yl]cyclohexyl}imidazo[1,2-a]pyridine-2-carboxamide.], the IC50 was 7.94 pM.

On to `CC(C)(C)OC(=O)NCc1cccc(-c2cccc(-n3c(=O)n([C@H]4CC[C@@H](NC(=O)c5cn6cc(F)ccc6n5)CC4)c(=O)c4cc(F)cnc43)c2)c1` [Example 18, tert-butyl ({3′-[6-fluoro-3-(cis-4-{[(6-fluoroimidazo[1,2-a]pyridin-2-yl)carbonyl]amino}cyclohexyl)-2,4-dioxo-3,4-dihydropyrido[2,3-d]pyrimidin-1(2H)-yl]biphenyl-3-yl}methyl)carbamate.], for which the IC50 is 63.1 pM.

As to `O=C(N[C@H]1CC[C@@H](n2c(=O)c3cc(F)cnc3n(-c3cccc(-c4ccccc4CN4CCOCC4)c3)c2=O)CC1)c1cn2cc(F)ccc2n1` [Example 19, 6-fluoro-N-{cis-4-[6-fluoro-1-[2′-(morpholin-4-ylmethyl)biphenyl-3-yl]-2,4-dioxo-1,4-dihydropyrido[2,3-d]pyrimidin-3(2H)-yl]cyclohexyl}imidazo[1,2-a]pyridine-2-carboxamide.], the IC50 was 3.16 pM.

As for `O=C(N[C@H]1CC[C@@H](n2c(=O)c3cc(F)cnc3n(-c3cccc(-c4ccc(CCCO)cc4)c3)c2=O)CC1)c1cn2cc(F)ccc2n1` [Example 20, 6-fluoro-N-{cis-4-[6-fluoro-1-[4′-(3-hydroxypropyl)biphenyl-3-yl]-2,4-dioxo-1,4-dihydropyrido[2,3-d]pyrimidin-3(2H)-yl]cyclohexyl}imidazo[1,2-a]pyridine-2-carboxamide.], the IC50 is 20 pM.

Turning to `CC(C)(C)OC(=O)NCc1ccc(-c2cccc(-n3c(=O)n([C@H]4CC[C@@H](NC(=O)c5cn6cc(F)ccc6n5)CC4)c(=O)c4cc(F)cnc43)c2)cc1` [Example 21, tert-butyl ({3′-[6-fluoro-3-(cis-4-{[(6-fluoroimidazo[1,2-a]pyridin-2-yl)carbonyl]amino}cyclohexyl)-2,4-dioxo-3,4-dihydropyrido[2,3-d]pyrimidin-1(2H)-yl]biphenyl-4-yl}methyl)carbamate.], the IC50 is 50.1 pM.

In the case of `O=C(N[C@H]1CC[C@@H](n2c(=O)c3cc(F)cnc3n(-c3cccc(-c4ccc(O)cc4)c3)c2=O)CC1)c1cn2cc(F)ccc2n1` [Example 22, 6-fluoro-N-{cis-4-[6-fluoro-1-(4′-hydroxybiphenyl-3-yl)-2,4-dioxo-1,4-dihydropyrido[2,3-d]pyrimidin-3(2H)-yl]cyclohexyl}imidazo[1,2-a]pyridine-2-carboxamide.], the IC50 is 25.1 pM.

Turning to `Cc1cc(O)ccc1-c1cccc(-n2c(=O)n([C@H]3CC[C@@H](NC(=O)c4cn5cc(F)ccc5n4)CC3)c(=O)c3cc(F)cnc32)c1` [Example 23, 6-fluoro-N-{cis-4-[6-fluoro-1-(4′-hydroxy-2′-methylbiphenyl-3-yl)-2,4-dioxo-1,4-dihydropyrido[2,3-d]pyrimidin-3(2H)-yl]cyclohexyl}imidazo[1,2-a]pyridine-2-carboxamide.], the IC50 is 39.8 pM.

For the origin of these results see patent publication US20100204203A1, “Chemical Compounds 637: Pyridopyrimidinediones as PDE4 Inhibitors” (priority 2007, published 2010).
